# Data taken from ChEMBL document CHEMBL4619827, “Design, Synthesis, and Biological Evaluation of Novel Acylhydrazone Derivatives as Potent Neuraminidase Inhibitors” (ACS Med Chem Lett, 2020).
# Assay: Inhibition of clostridium perfringens neuraminidase using fluorescent substrate preincubated for 2 mins followed by substrate addition and measured after 1 hr by fluorescence based microplate reader analysis
row,SMILES,IC50 [µM]
1,O=C(NCCCN1CCOCC1)C(=O)N/N=C/c1cccc(COc2ccc(Cl)cc2)c1,6.2
2,O=C(NCCCN1CCOCC1)C(=O)N/N=C/c1cccc(COc2ccccc2F)c1,21.6
3,COc1ccccc1OCc1cccc(/C=N/NC(=O)C(=O)NCCCN2CCOCC2)c1,47.8
4,O=C(NCCCN1CCOCC1)C(=O)N/N=C/c1cccc(COc2cc(F)ccc2[N+](=O)[O-])c1,17.8
5,CCC(CC)O[C@@H]1C=C(C(=O)O)C[C@H](N)[C@H]1NC(C)=O [OSELTAMIVIR CARBOXYLATE],17
6,O=C(NCCCN1CCOCC1)C(=O)N/N=C/c1cccc(COc2ccc(F)cc2)c1,5.29
7,O=C(NCCCN1CCOCC1)C(=O)N/N=C/c1cccc(COc2ccccc2Cl)c1,20.4
8,O=C(NCCCN1CCOCC1)C(=O)N/N=C/c1cccc(COc2cccc(Cl)c2)c1,22.1
9,COc1ccc(OCc2cccc(/C=N/NC(=O)C(=O)NCCCN3CCOCC3)c2)cc1,0.6
10,COc1ccc(Br)cc1OCc1cccc(/C=N/NC(=O)C(=O)NCCCN2CCOCC2)c1,7.31
11,CC(=O)Nc1ccc(OCc2cccc(/C=N/NC(=O)C(=O)NCCCN3CCOCC3)c2)cc1,73.4
12,O=C(NCCCN1CCOCC1)C(=O)N/N=C/c1cccc(COc2ccc([N+](=O)[O-])cc2)c1,27.8
13,COc1cc([N+](=O)[O-])ccc1OCc1cccc(/C=N/NC(=O)C(=O)NCCCN2CCOCC2)c1,28.4
14,COc1cccc(OCc2cccc(/C=N/NC(=O)C(=O)NCCCN3CCOCC3)c2)c1,13.6
15,O=C(NCCCN1CCOCC1)C(=O)N/N=C/c1cccc(COc2ccccc2[N+](=O)[O-])c1,86
